Species on record: Rattus norvegicus
Test: DrugMatrix - Regimen: Daily Repeat
Assay type: toxicity, organism-based, Sprague-Dawley
Set-up: regimen Daily Repeat, gender Male, age 6-8 weeks
Details: in vivo, po, route oral GAVAGE, vehicle .5 % CMC; for ABSOLUTE BASOPHIL / ABSOLUTE EOSINOPHIL / ABSOLUTE LYMPHOCYTE / ABSOLUTE MONOCYTE / ABSOLUTE SEGMENTED NEUTROPHIL / BASOPHIL / EOSINOPHIL / ERYTHROCYTE COUNT / HEMATOCRIT / HEMOGLOBIN / LEUKOCYTE COUNT / LYMPHOCYTE / MEAN CORPUSCULAR HEMOGLOBIN CONCENTRATION / MEAN CORPUSCULAR VOLUME / MONOCYTE / NEUTROPHIL / NUCLEATED RED BLOOD CELLS / PLATELET COUNT: tissue Blood; for ALANINE AMINOTRANSFERASE / ALBUMIN / ALKALINE PHOSPHATASE / BLOOD UREA NITROGEN / CARBON DIOXIDE / CHLORIDE / CHOLESTEROL / CREATINE PHOSPHOKINASE / CREATININE / GLUCOSE / LACTATE DEHYDROGENASE / LIPASE / PHOSPHORUS / POTASSIUM / SODIUM / TOTAL BILIRUBIN / TOTAL PROTEIN: tissue Plasma
[1] = 0 mg/kg, 72 h, dose level Control, time 3 day
[2] = 0 mg/kg, 120 h, dose level Control, time 5 day
[3] = 60 mg/kg, 72 h, dose level High, time 3 day

Question: How did the “ABSOLUTE BASOPHIL” value [1] turn out when `CO[C@H]1C[C@@H]2CC[C@@H](C)[C@@](O)(O2)C(=O)C(=O)N2CCCC[C@H]2C(=O)O[C@H]([C@H](C)C[C@@H]2CC[C@@H](O)[C@H](OC)C2)CC(=O)[C@H](C)/C=C(\C)[C@@H](O)[C@@H](OC)C(=O)[C@H](C)C[C@H](C)/C=C/C=C/C=C/1C` [SIROLIMUS] was run?
Answer: 0 CELLS/uL

Question: And the “ABSOLUTE EOSINOPHIL” value [1]?
Answer: 47.67 CELLS/uL

Question: And the “ABSOLUTE LYMPHOCYTE” value [1]?
Answer: 15937.67 CELLS/uL

Question: What about the “ABSOLUTE MONOCYTE” value [1] of the same compound?
Answer: 138.33 CELLS/uL

Question: And the “ABSOLUTE SEGMENTED NEUTROPHIL” value [1]?
Answer: 1443 CELLS/uL

Question: And the BASOPHIL [1]?
Answer: 0%

Question: And the EOSINOPHIL [1]?
Answer: 0.33%

Question: And the “ERYTHROCYTE COUNT” value [1]?
Answer: 5.45 x10E6/uL

Question: And the HEMATOCRIT [1]?
Answer: 34.43%

Question: And the HEMOGLOBIN [1]?
Answer: 13.38 G/DL

Question: What about the “LEUKOCYTE COUNT” value [1] of the same compound?
Answer: 17.57 x10E3/uL

Question: What about the LYMPHOCYTE [1] of the same compound?
Answer: 90.33%

Question: And the “MEAN CORPUSCULAR HEMOGLOBIN CONCENTRATION” value [1]?
Answer: 38.88 G/DL

Question: And the “MEAN CORPUSCULAR VOLUME” value [1]?
Answer: 63.27 fL

Question: What about the MONOCYTE [1] of the same compound?
Answer: 0.83%

Question: What about the NEUTROPHIL [1] of the same compound?
Answer: 8.5%

Question: What about the “NUCLEATED RED BLOOD CELLS” value [1] of the same compound?
Answer: 0 /100WBC

Question: What about the “PLATELET COUNT” value [1] of the same compound?
Answer: 1298 x10E3/uL

Question: What about the “ALANINE AMINOTRANSFERASE” value [1] of the same compound?
Answer: 47.67 u/L

Question: What about the ALBUMIN [1] of the same compound?
Answer: 4.18 G/DL

Question: What about the “ALKALINE PHOSPHATASE” value [1] of the same compound?
Answer: 398.5 u/L

Question: What about the “BLOOD UREA NITROGEN” value [1] of the same compound?
Answer: 16 mg/dL

Question: What about the “CARBON DIOXIDE” value [1] of the same compound?
Answer: 29.17 mmol/L

Question: What about the CHLORIDE [1] of the same compound?
Answer: 98.17 MEQ/L

Question: What about the CHOLESTEROL [1] of the same compound?
Answer: 68.83 mg/dL

Question: And the “CREATINE PHOSPHOKINASE” value [1]?
Answer: 467.33 u/L

Question: What about the CREATININE [1] of the same compound?
Answer: 0.14 mg/dL

Question: What about the GLUCOSE [1] of the same compound?
Answer: 151.67 mg/dL

Question: What about the “LACTATE DEHYDROGENASE” value [1] of the same compound?
Answer: 597.5 u/L

Question: And the LIPASE [1]?
Answer: 9.33 u/L

Question: What about the PHOSPHORUS [1] of the same compound?
Answer: 11.97 mg/dL

Question: And the POTASSIUM [1]?
Answer: 6.43 MEQ/L

Question: And the SODIUM [1]?
Answer: 140.68 MEQ/L

Question: And the “TOTAL BILIRUBIN” value [1]?
Answer: 0.18 mg/dL

Question: What about the “TOTAL PROTEIN” value [1] of the same compound?
Answer: 5.82 G/DL

Question: And the “ABSOLUTE BASOPHIL” value [2]?
Answer: 0 CELLS/uL

Question: What about the “ABSOLUTE EOSINOPHIL” value [2] of the same compound?
Answer: 31 CELLS/uL

Question: And the “ABSOLUTE LYMPHOCYTE” value [2]?
Answer: 14327.83 CELLS/uL

Question: What about the “ABSOLUTE MONOCYTE” value [2] of the same compound?
Answer: 102.83 CELLS/uL

Question: And the “ABSOLUTE SEGMENTED NEUTROPHIL” value [2]?
Answer: 1321.67 CELLS/uL

Question: And the BASOPHIL [2]?
Answer: 0%

Question: And the EOSINOPHIL [2]?
Answer: 0.17%

Question: And the “ERYTHROCYTE COUNT” value [2]?
Answer: 5.79 x10E6/uL

Question: What about the HEMATOCRIT [2] of the same compound?
Answer: 36.1%

Question: What about the “LEUKOCYTE COUNT” value [2] of the same compound?
Answer: 15.78 x10E3/uL

Question: And the LYMPHOCYTE [2]?
Answer: 90.5%

Question: And the “MEAN CORPUSCULAR HEMOGLOBIN CONCENTRATION” value [2]?
Answer: 39.22 G/DL

Question: What about the “MEAN CORPUSCULAR VOLUME” value [2] of the same compound?
Answer: 62.4 fL

Question: And the MONOCYTE [2]?
Answer: 0.67%

Question: And the NEUTROPHIL [2]?
Answer: 8.67%

Question: And the “NUCLEATED RED BLOOD CELLS” value [2]?
Answer: 0.17 /100WBC

Question: And the “PLATELET COUNT” value [2]?
Answer: 1211.67 x10E3/uL

Question: And the “ALANINE AMINOTRANSFERASE” value [2]?
Answer: 49 u/L

Question: And the ALBUMIN [2]?
Answer: 4.27 G/DL

Question: What about the “ALKALINE PHOSPHATASE” value [2] of the same compound?
Answer: 356.67 u/L

Question: And the “BLOOD UREA NITROGEN” value [2]?
Answer: 20.5 mg/dL

Question: What about the “CARBON DIOXIDE” value [2] of the same compound?
Answer: 29.17 mmol/L

Question: And the CHLORIDE [2]?
Answer: 98 MEQ/L

Question: And the CHOLESTEROL [2]?
Answer: 69.83 mg/dL

Question: What about the “CREATINE PHOSPHOKINASE” value [2] of the same compound?
Answer: 312 u/L

Question: What about the CREATININE [2] of the same compound?
Answer: 0.21 mg/dL

Question: And the GLUCOSE [2]?
Answer: 149.83 mg/dL

Question: What about the “LACTATE DEHYDROGENASE” value [2] of the same compound?
Answer: 322 u/L

Question: What about the LIPASE [2] of the same compound?
Answer: 10 u/L

Question: And the PHOSPHORUS [2]?
Answer: 12 mg/dL

Question: What about the POTASSIUM [2] of the same compound?
Answer: 6.75 MEQ/L

Question: And the SODIUM [2]?
Answer: 142.8 MEQ/L

Question: What about the “TOTAL BILIRUBIN” value [2] of the same compound?
Answer: 0.17 mg/dL

Question: What about the “TOTAL PROTEIN” value [2] of the same compound?
Answer: 6.1 G/DL

Question: What about the “ABSOLUTE BASOPHIL” value [3] of the same compound?
Answer: 0 CELLS/uL

Question: And the “ABSOLUTE EOSINOPHIL” value [3]?
Answer: 0 CELLS/uL

Question: And the “ABSOLUTE LYMPHOCYTE” value [3]?
Answer: 11212.33 CELLS/uL

Question: What about the “ABSOLUTE SEGMENTED NEUTROPHIL” value [3] of the same compound?
Answer: 775.67 CELLS/uL

Question: And the BASOPHIL [3]?
Answer: 0%

Question: What about the EOSINOPHIL [3] of the same compound?
Answer: 0%

Question: What about the “ERYTHROCYTE COUNT” value [3] of the same compound?
Answer: 6.32 x10E6/uL

Question: And the HEMATOCRIT [3]?
Answer: 39.93%

Question: And the HEMOGLOBIN [3]?
Answer: 15.57 G/DL

Question: What about the “LEUKOCYTE COUNT” value [3] of the same compound?
Answer: 12.23 x10E3/uL

Question: And the LYMPHOCYTE [3]?
Answer: 91.67%

Question: What about the “MEAN CORPUSCULAR HEMOGLOBIN CONCENTRATION” value [3] of the same compound?
Answer: 39 G/DL

Question: And the “MEAN CORPUSCULAR VOLUME” value [3]?
Answer: 63.4 fL

Question: And the MONOCYTE [3]?
Answer: 2%

Question: What about the NEUTROPHIL [3] of the same compound?
Answer: 6.33%

Question: What about the “NUCLEATED RED BLOOD CELLS” value [3] of the same compound?
Answer: 0 /100WBC

Question: And the “PLATELET COUNT” value [3]?
Answer: 1112 x10E3/uL

Question: What about the “ALANINE AMINOTRANSFERASE” value [3] of the same compound?
Answer: 51.33 u/L

Question: And the ALBUMIN [3]?
Answer: 4.23 G/DL

Question: What about the “ALKALINE PHOSPHATASE” value [3] of the same compound?
Answer: 271 u/L

Question: What about the “BLOOD UREA NITROGEN” value [3] of the same compound?
Answer: 18.33 mg/dL

Question: What about the “CARBON DIOXIDE” value [3] of the same compound?
Answer: 29.67 mmol/L

Question: And the CHLORIDE [3]?
Answer: 97.67 MEQ/L

Question: And the CHOLESTEROL [3]?
Answer: 84.33 mg/dL

Question: What about the “CREATINE PHOSPHOKINASE” value [3] of the same compound?
Answer: 323.67 u/L

Question: And the CREATININE [3]?
Answer: 0.19 mg/dL

Question: What about the GLUCOSE [3] of the same compound?
Answer: 192 mg/dL

Question: What about the “LACTATE DEHYDROGENASE” value [3] of the same compound?
Answer: 111.33 u/L

Question: And the LIPASE [3]?
Answer: 10.33 u/L

Question: And the PHOSPHORUS [3]?
Answer: 11.37 mg/dL

Question: What about the POTASSIUM [3] of the same compound?
Answer: 5.46 MEQ/L

Question: And the SODIUM [3]?
Answer: 143.47 MEQ/L

Question: What about the “TOTAL BILIRUBIN” value [3] of the same compound?
Answer: 0.17 mg/dL

Question: And the “TOTAL PROTEIN” value [3]?
Answer: 5.9 G/DL

Question: And the “ABSOLUTE BASOPHIL” value (60 mg/kg, 120 h, dose level High, time 5 day)?
Answer: 0 CELLS/uL

From ChEMBL document CHEMBL3885881, “DrugMatrix”
